For experiment [1], the target named is T1, human cloned 5-HT2B receptors (Homo sapiens, UniProt P41595).
T1 construct: expressed in transfected cells; host or cells: CHO-K1
The experiment in a line: Human cloned 5-HT2B receptor binding assay. The following applies: [3H]LSD (1 nM) displacement, membranes of CHO-K1 cells expressing cloned 5-HT2B receptor; read-out: 5-HT2B pKi (converted). As to the method:
The binding affinity of the compounds for human cloned 5-HT2B receptors was determined using the following assay.
CHO-K1 cells expressing cloned 5-HT2B receptor were maintained in Ultra-CHO medium containing 400 μg/ml of G418, 100 U/ml penicillin, 100 μg/ml streptomycin, 2.5 μg/ml fungizone and 1-foetal bovine serum, in 95/5% O2/CO2 at 37° C. The cells were harvested using 0.25% trypsin and were centrifuged at 800 rpm for 8 minutes. The cells were homogenised in 50 mM HEPES buffer containing 1 mM disodium EDTA and 1 mM PMSF at pH 7.4, using a Dounce homogeniser (20 strokes). The homogenate was centrifuged at 2280 rpm (1000 g) and 4° C. for 10 minutes, after which the supernatant was removed by decanting. The pellet was re-homogenised as above, and the resulting supernatant removed and combined with that already obtained. The supernatant solution was then centrifuged at 18300 rpm (40000 g) for 10 minutes at 4° C. using a Sorvall centrifuge. The supernatant was removed, and the pellet was re-suspended in 50 mM buffer at pH 7.4 using a Ultra-turrax T25 Polytron, before centrifugation again at 40000 g as above. This wash procedure was repeated, after which the membrane preparation was stored at a concentration of 1 mg/ml at −80° C. until use.
The membranes were thawed rapidly and diluted in assay buffer containing Tris-HCl (50 mM, pH 7.4), ascorbic acid (0.1°) and calcium chloride (4 mM). The membranes were homogenised to resuspend them, prior to adding 10 or 15 μg of membranes to assay wells containing [^3H]LSD (1 nM), assay buffer (50 mM Tris, 4 mM calcium chloride and 0.1° ascorbic acid) containing pargyline (10 μM), and the test compounds (1×10^−10 to 1×10^−4M). Non specific binding was determined in the presence of 100 μM 5-HT. After 30 minutes incubation at 37° C., the assay mixture was filtered through a combination of GF-C and GF-B filters, pre-soaked in 1% polyethyleneimine, using a Brandel cell harvester, and were washed three times using 50 mM Tris-HCl. Radioactivity retained on the filters was determined by liquid scintillation counting. For each test compound, the concentration that inhibited binding of [^3H]LSD by 50% was determined using curve fitting software (Prism). Kd values (concentration of LSD required to occupy 50% of the receptor binding sites at equilibrium) determined from saturation binding studies were then used to calculate inhibition dissociation constants (Ki) using the following equation: […]
This approach follows that set out in Kenakin, T. P. Pharmacologic analysis of drug-receptor interaction. Raven Press, New York, 2nd Edition.

Experiment [2] addresses T2, cloned human 5-HT2A receptor (Homo sapiens, UniProt P28223).
T2 construct: purchased Euroscreen; host or cells: CHO-K1
The experiment in a line: Human 5-HT2A receptor binding assay. The following applies: [3H]ketanserin (1 nM) displacement, CHO-K1 cell membranes; read-out: 5-HT2A pKi (converted). As to the method:
(§1) The binding affinity of ligands for human 5-HT2A and 5-HT2C receptors was determined using the following assay.
Membrane preparations from CHO-K1 cells expressing the cloned human 5-HT2A receptor were obtained (Euroscreen). The membranes were thawed rapidly and diluted in assay buffer containing Tris-HCl (50 mM, pH 7.7). The membranes were resuspended by homogenisation, prior to adding 15 μg of membranes to assay wells containing [3H]ketanserin (1 nM), assay buffer (50 mM Tris at pH 7.4) containing pargyline (10 μM), and test compounds (1×10^−10 to 1×10^−4M). Non specific binding was determined in the presence of 100 μM mianserin. After 15 minutes incubation at 37° C., the assay mixture was filtered through a combination of GF-C and GF-B filters, pre-soaked in 0.05% Brij, using a Brandel cell harvester, and were washed three times using ice cold Tris-HCl buffer (50 mM). Radioactivity retained on the filters was determined by liquid scintillation counting. For each test compound, the concentration that inhibited binding of [^3H]ketanserin by 50% was determined using curve fitting software (Prism). Kd values (concentration of ketanserin required to occupy 50% of the receptor binding sites at equilibrium) determined from saturation binding studies were then used to calculate inhibition dissociation constants (Ki) using the following equation: […]

Experiment [3] has as its target T3, cloned human 5-HT2C receptor (Homo sapiens, UniProt P28335).
T3 construct: purchased Euroscreen; host or cells: CHO-K1
T3 sequence (P28335 33-458): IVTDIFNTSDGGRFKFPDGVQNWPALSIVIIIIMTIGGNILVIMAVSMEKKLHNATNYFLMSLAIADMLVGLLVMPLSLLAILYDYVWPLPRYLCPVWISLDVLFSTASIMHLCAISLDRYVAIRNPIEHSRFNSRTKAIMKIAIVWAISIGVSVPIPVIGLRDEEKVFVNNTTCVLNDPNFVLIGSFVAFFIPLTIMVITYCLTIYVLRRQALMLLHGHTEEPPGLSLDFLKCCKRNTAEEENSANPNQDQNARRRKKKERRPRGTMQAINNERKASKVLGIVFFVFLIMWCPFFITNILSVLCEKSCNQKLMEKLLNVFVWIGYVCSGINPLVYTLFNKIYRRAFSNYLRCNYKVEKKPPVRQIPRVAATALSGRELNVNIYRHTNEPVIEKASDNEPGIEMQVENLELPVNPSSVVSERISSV
The experiment in a line: Human 5-HT2C receptor binding assay. The following applies: [3H]mesulergine (1 nM) displacement, CHO-K1 cell membranes; read-out: 5-HT2C pKi (converted). The method, then: as §1
Membrane preparations from CHO-K1 cells expressing the cloned human 5-HT2C receptor were obtained (Euroscreen). The membranes were thawed rapidly and diluted in assay buffer containing Tris-HCl (50 mM, pH 7.7), ascorbic acid (0.1%) and pargyline (10 μM). The membranes were resuspended by homogenisation, prior to adding 6 μg of membranes to assay wells containing [^3H]mesulergine (1 nM), assay buffer (50 mM Tris at pH 7.7 and 0.1% ascorbic acid) containing pargyline (10 μM), and test compounds (1×10^−10 to 1×10^−4M). Non specific binding was determined in the presence of 100 μM mianserin. After 30 minutes incubation at 37° C., the assay mixture was filtered through a combination of GF-C and GF-B filters, pre-soaked in 1% bovine serum albumin, using a Brandel cell harvester, and were washed three times using ice cold Tris-HCl buffer (50 mM). Radioactivity retained on the filters was determined by liquid scintillation counting. For each test compound, the concentration that inhibited binding of [^3H]mesulergine by 50% was determined using curve fitting software (Prism). Kd values (concentration of mesulergine required to occupy 50% of the receptor binding sites at equilibrium) determined from saturation binding studies were then used to calculate inhibition dissociation constants (Ki) using the following equation: […]

Here are results for 19 compounds from patent US20090018150A1, “5-Ht2b Receptor Antagonists” (ASTERAND UK LIMITED, priority 2003, published 2009).

Structures are written as SMILES. Counter-ions that a name gives are not always drawn. Where only a bound is given, the exact number is not on record here.

T2 sequence (P28223 whole entry): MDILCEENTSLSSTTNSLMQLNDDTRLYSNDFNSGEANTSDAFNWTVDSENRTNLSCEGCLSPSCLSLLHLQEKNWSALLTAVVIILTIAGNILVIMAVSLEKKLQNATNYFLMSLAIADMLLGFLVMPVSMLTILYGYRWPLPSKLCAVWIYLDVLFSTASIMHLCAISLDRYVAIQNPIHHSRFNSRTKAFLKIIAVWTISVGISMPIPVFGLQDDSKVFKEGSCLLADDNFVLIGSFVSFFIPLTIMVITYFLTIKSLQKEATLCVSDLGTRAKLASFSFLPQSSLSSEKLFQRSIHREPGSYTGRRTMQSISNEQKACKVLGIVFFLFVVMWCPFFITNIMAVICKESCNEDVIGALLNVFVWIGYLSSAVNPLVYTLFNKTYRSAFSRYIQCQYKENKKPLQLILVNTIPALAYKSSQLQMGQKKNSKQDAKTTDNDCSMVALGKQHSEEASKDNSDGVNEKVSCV
T1 sequence (P41595 whole entry): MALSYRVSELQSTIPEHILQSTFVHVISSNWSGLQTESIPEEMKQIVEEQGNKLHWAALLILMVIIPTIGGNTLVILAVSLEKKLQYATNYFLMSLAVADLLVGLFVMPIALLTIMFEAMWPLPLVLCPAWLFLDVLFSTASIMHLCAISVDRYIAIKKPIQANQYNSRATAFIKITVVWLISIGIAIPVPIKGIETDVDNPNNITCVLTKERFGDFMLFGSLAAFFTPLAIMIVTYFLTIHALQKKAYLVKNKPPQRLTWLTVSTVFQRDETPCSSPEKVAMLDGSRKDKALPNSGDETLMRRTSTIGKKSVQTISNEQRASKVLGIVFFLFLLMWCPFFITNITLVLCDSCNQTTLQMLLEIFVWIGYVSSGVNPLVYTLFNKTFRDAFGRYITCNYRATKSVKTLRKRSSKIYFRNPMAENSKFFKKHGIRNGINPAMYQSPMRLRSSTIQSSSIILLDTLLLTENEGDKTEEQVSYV

Regarding `COc1ccc(-c2cccc(Nc3cc(C)nc(N)n3)c2)cc1OC` [Compound 10B, N-(3′,4′-dimethoxy-biphenyl-3-yl)-6-methyl-pyrimidine-2,4-diamine trifluoroacetic acid], the results for the Ki in experiment [1], in experiment [2] and in experiment [3] were below 1000 nM, above 10000 nM and above 10000 nM, respectively.
As to `CC(=O)c1cccc(-c2cccc(Nc3cc(C)nc(N)n3)c2)c1` [Compound 10C, 1-[3′-(2-amino-6-methyl-pyrimidin-4-ylamino)-biphenyl-3-yl]-ethanone trifluoroacetic acid], the Ki is below 1000 nM in experiment [1], above 316 nM in experiment [2] and above 316 nM in experiment [3].
On to `Cc1cc(Nc2cccc(-c3cccnc3)c2)nc(N)n1` [Compound 10D, 6-methyl-N^4-(3-pyridin-3-yl-phenyl)-pyrimidine-2,4-diamine bis trifluoroacetic acid], for which the values for the Ki in experiment [1], in experiment [2] and in experiment [3] were below 1000 nM, above 1000 nM and above 1000 nM, respectively.
In the case of `Cc1cccc(-c2cccc(Nc3cc(C)nc(N)n3)c2)c1` [Compound 10E, 6-methyl-N^4-(3′-methyl-biphenyl-3-yl)-pyrimidine-2,4-diamine trifluoroacetic acid], the Ki in experiment [1] is below 100 nM; in experiment [2], above 100 nM; in experiment [3], above 100 nM.
Turning to `COc1ccccc1-c1cccc(Nc2cc(C)nc(N)n2)c1` [Compound 10F, N^4-(2′-methoxy-biphenyl-3-yl)-6-methyl-pyrimidine-2,4-diamine trifluoroacetic acid], the figures for the Ki in experiment [1], in experiment [2] and in experiment [3] were below 100 nM, above 316 nM and above 100 nM, respectively.
Take `Cc1cc(Nc2cccc(-c3ccc(N(C)C)cc3)c2)nc(N)n1` [Compound 10H, N^4-(4′-dimethylamino-biphenyl-3-yl)-6-methyl-pyrimidine-2,4-diamine bis trifluoroacetic acid]: the results for the Ki in experiment [1], in experiment [2] and in experiment [3] were below 100 nM, above 316 nM and above 316 nM, respectively.
Consider `CC(=O)Nc1cccc(-c2cccc(Nc3cc(C)nc(N)n3)c2)c1` [Compound 10I, N-[3′-(2-amino-6-methyl-pyrimidin-4-ylamino)-biphenyl-3-yl]-acetamide hydrochloride], for which the Ki is below 1000 nM in experiment [1], above 10000 nM in experiment [2] and above 10000 nM in experiment [3].
Take `Cc1cc(Nc2ccc(-c3ccccc3)cc2)nc(N)n1` [Compound 11A, N^4-biphenyl-4-yl-6-methyl-pyrimidine-2,4-diamine trifluoroacetic acid]: the Ki is below 10 nM in experiment [1], above 1000 nM in experiment [2] and above 100 nM in experiment [3].
Turning to `Cc1cccc(-c2ccc(Nc3cc(C)nc(N)n3)cc2)c1` [Compound 11B], the Ki is below 10 nM in experiment [1], above 1000 nM in experiment [2] and above 31.6 nM in experiment [3].
Turning to `Cc1cccc(-c2cc(Nc3cc(C)nc(N)n3)ccc2C)c1` [Compound 12, N^4-(6,3′-dimethyl-biphenyl-3-yl)-6-methyl-pyrimidine-2,4-diamine], the Ki is below 100 nM in experiment [1], above 1000 nM in experiment [2] and above 1000 nM in experiment [3].
`Nc1nccc(Nc2ccc(I)cc2)n1` [Compound 16, N″-(4-Iodo-phenyl)-pyrimidine-2,4-diamine]: the Ki in experiment [1] was below 1000 nM; in experiment [2], above 1000 nM; in experiment [3] it was above 1000 nM.
For `CCOc1ccc2ccccc2c1-c1c[nH]c(NC(C)=O)n1` [Compound 103A, N-[4-(2-Ethoxy-naphthalen-1-yl)-1H-imidazol-2-yl]-acetamide], the results for the Ki in experiment [1], in experiment [2] and in experiment [3] were below 100 nM, above 3160 nM and above 1000 nM, respectively.
As for `COc1ccc(-c2c[nH]c(NC(C)=O)n2)c2ccccc12` [Compound 103B, N-[4-(4-Methoxy-naphthalen-1-yl)-1H-imidazol-2-yl]-acetamide], the Ki in experiment [1] is below 1000 nM; in experiment [2], above 10000 nM; in experiment [3] it was above 10000 nM.
`COc1c(-c2cnc(NC(C)=O)[nH]2)ccc2ccccc12` [Compound 103E, N-[4-(1-Methoxy-naphthalen-2-yl)-1H-imidazol-2-yl]-acetamide]: the Ki in experiment [1] is below 100 nM; in experiment [2], above 10000 nM; in experiment [3], above 1000 nM.
Regarding `CC(=O)Nc1nc(-c2cccc3ccc(Br)cc23)c[nH]1` [Compound 103G, N-[4-(7-Bromo-naphthalen-1-yl)-1H-imidazol-2-yl]-acetamide], the Ki is below 100 nM in experiment [1], above 1000 nM in experiment [2] and above 1000 nM in experiment [3].
Take `CC(=O)Nc1nc(-c2cccc3c(Br)cccc23)c[nH]1` [Compound 103H, N-[4-(5-Bromo-naphthalen-1-yl)-1H-imidazol-2-yl]-acetamide]: the Ki is below 100 nM in experiment [1], above 1000 nM in experiment [2] and above 1000 nM in experiment [3].
Turning to `CC(=O)Nc1nc(-c2cccc3ccccc23)c(C)[nH]1` [Compound 103I, N-(5-Methyl-4-naphthalen-1-yl-1H-imidazol-2-yl)-acetamide], the Ki was below 100 nM in experiment [1], above 1000 nM in experiment [2] and above 1000 nM in experiment [3].
In the case of `CC(=O)Nc1nc(-c2cccc3sccc23)c[nH]1` [Compound 103L, N-(4-Benzo[b]thiophen-4-yl-1H-imidazol-2-yl)-acetamide], the Ki was below 100 nM in experiment [1], above 10000 nM in experiment [2] and above 10000 nM in experiment [3].
Regarding `CC(=O)Nc1nc(-c2cccc3ccccc23)c[nH]1` [Compound 103N, N-(4-Naphthalen-1-yl-1H-imidazol-2-yl)-acetamide], the figures for the Ki in experiment [1], in experiment [2] and in experiment [3] were below 1000 nM, above 10000 nM and above 10000 nM, respectively.
